From patent publication US11180452B2, “Methods and compositions for selectively inhibiting pathogenic microbes” (priority 2019, dated 2021)
≈ marks a conversion by molar mass, not a printed value. Where “and” joins values, the source holds several entries; their conditions need not be identical. Equal entries are not always repeated. Where two headings read alike, the source gives them in different places.

Key:
Trichophyton rubrum = assay: MIC against Trichophyton rubrum; type: cell-based; settings: Trichophyton rubrum Castellani Sabouraud ATCC: 28188; read-out: MIC
NoSpin HepaRG cells = assay: HepaRG cytotoxicity, MTT assay EC50; type: cell-based, human; settings: Homo sapiens, HepaRG; cytotoxicity EC50, Table 9
Protocol: Additionally, the antimicrobial compounds were analyzed for cytotoxicity. […] We utilized the standard MTT assay (Promega CellTiter 96) and GraphPad Prism 7 software to determine EC50 values for each analogue. Briefly, 20,000 HepG2 cells in 200 μl of the ATCC recommended media were seeded in each well of a 96-well plate with a moisture barrier created in the outermost wells. The cells were allowed to attach overnight at 37° C., and then observed under phase contrast microscopy for proper morphological characteristics. […] Once incubations were complete, the spectrophotometric absorbance of the samples was measured at a wavelength of 595 nm. […] For the HepaRG assay, NoSpin HepaRG™ cells (Lonza, cat #NSHPRG) were thawed and plated with 20,000 cells per well. They were allowed to attach for 4 h (optimal DME profile per Lonza's testing) before dosing following the identical protocol as above.

Bacillus subtilis = Bacillus subtilis MIC / MBC; type: cell-based; settings: for MBC: Bacillus subtilis NRRL: B-571, minimum bactericidal concentration; for MIC: Bacillus subtilis
Bacillus thuringiensis = type: cell-based; settings: Bacillus thuringiensis Berliner ATCC: 10792; for MIC: Bacillus thuringiensis, read-out: MIC
[1] = system: Burkholderia thailandensis Brett et al ATCC: 700388; assay: microbe, parasite or virus in culture; type: cell-based
Candida glabrata = Candida glabrata MIC / MFC; type: cell-based; settings: Nakaseomyces glabratus, Candida glabrata #584 (Table 2); for MFC: minimum fungicidal concentration, read-out: MFC; for MIC: read-out: MIC
[2] = system: Francisella tularensis subsp. Holarctica Strain LVSR NR-597; assay: microbe, parasite or virus in culture; type: cell-based
N. gonorrhoeae = N. gonorrhoeae MIC; type: cell-based; settings: Neisseria gonorrhoeae
[3] = system: Francisella tularensis strains; assay: microbe, parasite or virus in culture; type: cell-based
[4] = Toxicity in mice, body weight over 7 days; type: in vivo, Balb/c mice; settings: for Animal body weight (kg) Day 0 / Animal body weight (kg) Day 1 / Animal body weight (kg) Day 2 / Animal body weight (kg) Day 3 / Animal body weight (kg) Day 4 / Animal body weight (kg) Day 5 / Animal body weight (kg) Day 6 / Animal body weight (kg) Day 7: mice, IP; for Animal body weight (kg) Day 0: Day 0, individual animals; for Animal body weight (kg) Day 1: Day 1, individual animals; for Animal body weight (kg) Day 2: Day 2, individual animals; for Animal body weight (kg) Day 3: Day 3, individual animals; for Animal body weight (kg) Day 4: Day 4, individual animals; for Animal body weight (kg) Day 5: Day 5, individual animals; for Animal body weight (kg) Day 6: Day 6, individual animals; for Animal body weight (kg) Day 7: Day 7, individual animals
Excerpt: The vehicle is 40% PEG300 solution in 0.9% NaCl. […] Thus, the compounds are useful for in vivo antimicrobial administration.

[5] = Bacillus subtilis (Ehrenberg 1835) Cohn 1872 NRRL: B-571, read-out: MIC
[6] = read-out: F. tularensis BSL-3 MIC, Strain 100
[7] = read-out: F. tularensis BSL-3 MIC, strain HN-63
[8] = read-out: F. tularensis BSL-3 MIC, strain LVS
[9] = read-out: F. tularensis BSL-3 MIC, strain MA00-2987
[10] = read-out: F. tularensis BSL-3 MIC, strain MO #1
[11] = read-out: F. tularensis BSL-3 MIC, strain MO #2
[12] = read-out: F. tularensis BSL-3 MIC, strain MO #3
[13] = read-out: F. tularensis BSL-3 MIC, strain OR-96
[14] = read-out: F. tularensis BSL-3 MIC, strain SCHU S4
[15] = read-out: F. tularensis BSL-3 MIC, strain WY-96
[16] = read-out: MAX, highest MIC over the Francisella tularensis strains
[17] = read-out: MIN, lowest MIC over the Francisella tularensis strains

In the case of `COc1ccc2[nH]cc(Sc3ccc(Br)cc3)c2c1` [Compound 172E, 3-((4-bromophenyl)thio)-5-methoxy-1H-indole], the MIC (Trichophyton rubrum) is reported as 2.08 mg/L (≈ 6.22 µM), the EC50 (NoSpin HepaRG cells) is reported as 23.3 mg/L (≈ 69.7 µM) and the MBC (Bacillus subtilis) is reported as 6.25 mg/L (≈ 18.7 µM). For the same compound, the MIC (Bacillus subtilis; [5]) was 1.56 mg/L (≈ 4.67 µM), the MBC (Bacillus thuringiensis) was 12.5 mg/L (≈ 37.4 µM) and the MIC (Bacillus thuringiensis) was 1.56 mg/L (≈ 4.67 µM). For the same compound, the MIC [1] was over 50 mg/L, the MFC (Candida glabrata) was over 50 mg/L and the MIC (Candida glabrata) was 6.25 mg/L (≈ 18.7 µM). The MIC [2] was 0.78 mg/L (≈ 2.33 µM), the MIC (N. gonorrhoeae; strain #167) was under 0.39 mg/L and the MIC (N. gonorrhoeae; strain #203) was 3.13 mg/L (≈ 9.36 µM). It also gave an MIC (N. gonorrhoeae; strain #205) of 3.13 mg/L (≈ 9.36 µM), an MIC50 [3] of 8 mg/L (≈ 23.9 µM) and an MIC [3, 6] of over 8 mg/L. The MIC [3, 7] was 8 mg/L (≈ 23.9 µM), the MIC [3, 8] was over 8 mg/L and the MIC [3, 9] was 8 mg/L (≈ 23.9 µM). The MIC [3, 10] was 5.33 mg/L (≈ 15.9 µM), the MIC [3, 11] was 3.33 mg/L (≈ 9.96 µM) and the MIC [3, 12] was 8 mg/L (≈ 23.9 µM). The MIC [3, 13] was 8 mg/L (≈ 23.9 µM), the MIC [3, 14] was 4 mg/L (≈ 12 µM) and the MIC [3, 15] was over 8 mg/L. It also gave an MIC [3, 16] of over 8 mg/L and an MIC [3, 17] of 3.33 mg/L (≈ 9.96 µM).
With `Oc1ccccc1Sc1c[nH]c2ccc(Br)cc12` [Compound 174AI, 2-((5-bromo-1H-indol-3-yl)thio)phenol] the EC50 (NoSpin HepaRG cells) was 27.4 mg/L (≈ 85.6 µM), the MBC (Bacillus subtilis) was 6.25 mg/L (≈ 19.5 µM) and the MIC (Bacillus subtilis; [5]) was 0.78 mg/L (≈ 2.44 µM). For the same compound, the MIC (Bacillus subtilis; strain B-571 (Table 4), read-out: Bacillus subtilis MIC) was 0.78 mg/L (≈ 2.44 µM), the MIC (Bacillus subtilis; strain B-1985, read-out: Bacillus subtilis MIC) was 0.78 mg/L (≈ 2.44 µM) and the MIC (Bacillus subtilis; strain B-3665, read-out: Bacillus subtilis MIC) was 6.25 mg/L (≈ 19.5 µM). For the same compound, the MIC (Bacillus subtilis; strain B-14322, read-out: Bacillus subtilis MIC) was 3.13 mg/L (≈ 9.77 µM), the MIC (Bacillus subtilis; strain B-41090, read-out: Bacillus subtilis MIC) was 6.25 mg/L (≈ 19.5 µM) and the MIC (Bacillus subtilis; strain B-41581, read-out: Bacillus subtilis MIC) was 6.25 mg/L (≈ 19.5 µM). It also gave an MIC (Bacillus subtilis; strain BD-594, read-out: Bacillus subtilis MIC) of 6.25 mg/L (≈ 19.5 µM), an MBC (Bacillus thuringiensis) of over 50 mg/L and an MIC (Bacillus thuringiensis) of 0.78 mg/L (≈ 2.44 µM). For the same compound, the MBC [1] was over 50 mg/L, the MIC [1] was 12.5 mg/L (≈ 39 µM) and the MFC (Candida glabrata) was 25 mg/L (≈ 78.1 µM). For the same compound, the MIC (Candida glabrata) was 6.25 mg/L (≈ 19.5 µM), the MIC [2] was 2 mg/L (≈ 6.25 µM) and the MIC (N. gonorrhoeae; strain #167) was under 0.39 mg/L. It also gave an MIC50 [3] of 3 mg/L (≈ 9.37 µM), an MIC [3, 6] of 6 mg/L (≈ 18.7 µM) and an MIC [3, 7] of 2 mg/L (≈ 6.25 µM). For the same compound, the MIC [3, 8] was 4 mg/L (≈ 12.5 µM), the MIC [3, 9] was 1.67 mg/L (≈ 5.22 µM) and the MIC [3, 10] was 1.33 mg/L (≈ 4.15 µM). The MIC [3, 11] was 1.33 mg/L (≈ 4.15 µM), the MIC [3, 12] was 2 mg/L (≈ 6.25 µM) and the MIC [3, 13] was 4 mg/L (≈ 12.5 µM). For the same compound, the MIC [3, 14] was 4 mg/L (≈ 12.5 µM), the MIC [3, 15] was 6 mg/L (≈ 18.7 µM) and the MIC [3, 16] was 6 mg/L (≈ 18.7 µM). For the same compound, the MIC [3, 17] was 1.33 mg/L (≈ 4.15 µM), the “toxicity in mice by body weight” value ([4]; 6-week-old Balb/c mice, body weight over 7 days, vehicle 40% PEG300 in 0.9% NaCl) was “did not have significant toxicity” and the “Animal body weight (kg) Day 0” value ([4]; 0.1 mg/kg, 0.1 mg/kg) was 0.023 kg (2×) and 0.022 kg. The “Animal body weight (kg) Day 1” value ([4]; 0.1 mg/kg, 0.1 mg/kg) was 0.022 kg (2×) and 0.021 kg, the “Animal body weight (kg) Day 2” value ([4]; 0.1 mg/kg, 0.1 mg/kg) was 0.023 kg and 0.022 kg and 0.021 kg and the “Animal body weight (kg) Day 3” value ([4]; 0.1 mg/kg, 0.1 mg/kg) was 0.024 kg and 0.022 kg (2×). For the same compound, the “Animal body weight (kg) Day 4” value ([4]; 0.1 mg/kg, 0.1 mg/kg) was 0.024 kg and 0.022 kg (2×), the “Animal body weight (kg) Day 5” value ([4]; 0.1 mg/kg, 0.1 mg/kg) was 0.024 kg and 0.022 kg (2×) and the “Animal body weight (kg) Day 6” value ([4]; 0.1 mg/kg, 0.1 mg/kg) was 0.024 kg and 0.022 kg (2×). For the same compound, the “Animal body weight (kg) Day 7” value ([4]; 0.1 mg/kg, 0.1 mg/kg) was 0.023 kg (2×) and 0.022 kg, the “Animal body weight (kg) Day 0” value ([4]; 1 mg/kg, 1 mg/kg) was 0.022 kg and 0.024 kg and 0.026 kg and the “Animal body weight (kg) Day 1” value ([4]; 1 mg/kg, 1 mg/kg) was 0.023 kg and 0.024 kg and 0.026 kg. The “Animal body weight (kg) Day 2” value ([4]; 1 mg/kg, 1 mg/kg) was 0.023 kg and 0.025 kg and 0.026 kg, the “Animal body weight (kg) Day 3” value ([4]; 1 mg/kg, 1 mg/kg) was 0.023 kg and 0.025 kg and 0.027 kg and the “Animal body weight (kg) Day 4” value ([4]; 1 mg/kg, 1 mg/kg) was 0.022 kg and 0.025 kg and 0.026 kg. The “Animal body weight (kg) Day 5” value ([4]; 1 mg/kg, 1 mg/kg) was 0.022 kg and 0.025 kg and 0.026 kg, the “Animal body weight (kg) Day 6” value ([4]; 1 mg/kg, 1 mg/kg) was 0.022 kg and 0.024 kg and 0.026 kg and the “Animal body weight (kg) Day 7” value ([4]; 1 mg/kg, 1 mg/kg) was 0.022 kg and 0.024 kg and 0.026 kg. For the same compound, the “Animal body weight (kg) Day 0” value ([4]; 10 mg/kg, 10 mg/kg) was 0.022 kg and 0.026 kg and 0.024 kg, the “Animal body weight (kg) Day 1” value ([4]; 10 mg/kg, 10 mg/kg) was 0.021 kg and 0.024 kg and 0.022 kg and the “Animal body weight (kg) Day 2” value ([4]; 10 mg/kg, 10 mg/kg) was 0.022 kg and 0.024 kg and 0.023 kg. The “Animal body weight (kg) Day 3” value ([4]; 10 mg/kg, 10 mg/kg) was 0.022 kg and 0.025 kg and 0.023 kg, the “Animal body weight (kg) Day 4” value ([4]; 10 mg/kg, 10 mg/kg) was 0.022 kg and 0.026 kg and 0.024 kg and the “Animal body weight (kg) Day 5” value ([4]; 10 mg/kg, 10 mg/kg) was 0.023 kg and 0.026 kg and 0.024 kg. For the same compound, the “Animal body weight (kg) Day 6” value ([4]; 10 mg/kg, 10 mg/kg) was 0.022 kg and 0.026 kg and 0.024 kg and the “Animal body weight (kg) Day 7” value ([4]; 10 mg/kg, 10 mg/kg) was 0.022 kg and 0.026 kg and 0.023 kg.
